The target in one assay is T1, CDK4 (Homo sapiens, UniProt P11802).
T1 construct: purchased Reaction Biology Corp. (Kinase HotSpot service)
In words: CDK4 kinase inhibition (Reaction Biology HotSpot). To be noted: for inhibition at 20 µM: single dose of 20 µM. Type of assay: biochemical. An excerpt:
(§1) 5. CDK Kinase Inhibitory Activity
(§2) along with required cofactors.
(§3) Kinase activity data were
(§4) (dimethyl sulfoxide) reactions.

Another assay has as its system p53. In words: ELISA of p53 level in MCF-7 cells. It counts as cell-based, human. Conditions: for fold increase of p53 level: MCF-7, as compared to the control; for p53: MCF-7 cells treated at IC50, 48 h, control 41.26 ± 2.7. As to the method:
(§5) In addition, their influence on the level of caspase-3 and p53 was estimated in the MCF-7 cell line.
(§6) Assessment of the levels for the proapoptotic markers (Bax, caspase-3, and p53) as well as the antiapoptotic marker (Bcl-2) was carried out through the use of ELISA colorimetric kits in accordance with the manufacturer’s instructions, as mentioned earlier. In addition, the pro-apoptotic potential of indoles 6e and 6f towards MCF-7 cells was evaluated through an FITC Annexin V apoptosis detection kit by flow cytometry, in accordance with the manufacturer’s protocol and referring to the reported procedures.
(§7) The levels of the pro-apoptotic markers (Bax, caspase-3 and p53) as well as the anti-apoptotic marker Bcl-2 were determined using ELISA colorimetric kits per the manufacturer’s instructions. Breast cancer MCF-7 cells were cultured as a monolayer in T-25 flasks and were seeded to attain 30% confluency prior to treatment. Cells were then […]
(§8) of treatment, cells were collected via trypsinization and centrifuged at 10,000 rpm. The pellet was then rinsed with PBS and lysed in RIPA lysis buffer at 4 °C for 45 min, then centrifuged at 14,000 rpm for 20 min to remove the cellular debris. Lysates were then collected and stored at −80 °C for later protein determination using Pierce BCA Protein Assay Kit according to manufacturer’s recommendations.
(§9) The cell lysate was diluted 10 times, and 100 μL ([…]) was added to the wells of four separate microtiter plates for the four ELISA kits that were pre-coated with primary antibodies specific to Bax, Bcl-2, caspase-3 and p53 proteins, respectively. A secondary biotin-linked antibody specific to the protein captured by the primary antibody was further added to bind the captured protein, forming a “sandwich” of specific antibodies around the desired protein in the cell lysate. The streptavidin-HRP complex was then used to bind the biotin-linked secondary antibody through its streptavidin portion. The HRP domain reacted with the added TMB substrate to form a colored product that measured at 450 nm by a plate reader ChroMate-4300 after the reaction was terminated via the addition of stop solution. […]
(§10) Cells were then rinsed in binding buffer and resuspended in 150
(§11) μL of binding buffer with the addition of 1 μL of DAPI (1 μg/μL in PBS). […]
A general note: An ELISA detects its analyte on a solid surface through an enzyme-linked reagent.

A further assay concerns Bcl-2. In words: ELISA of Bcl-2 level in MCF-7 cells. Conditions: for fold decrease of Bcl-2 level: MCF-7, vs control; for Bcl-2: MCF-7 cells treated at IC50, 48 h, control 4.65 ± 0.23. Type of assay: cell-based, human. Here is the method:
(§12) Homogeneously, both conjugates were able to decrease the level of the anti-apoptotic Bcl-2 protein by 2.12-, and 1.7-fold, respectively (Table 3). As a more analytical variable, the Bax/Bcl-2 ratio was verified to be amplified by conjugates 6e and 6f, 18- and 12-fold, respectively.
as §6, §7, §8, §9, §10, §11

The next assay concerns Bax. Kind of assay: ELISA of Bax level in MCF-7 cells. It counts as cell-based, human. To be noted: for fold increase of Bax level: MCF-7, vs control; for Bax: MCF-7 cells treated at IC50, 48 h, control 38.3 ± 2.2. As to the method:
as §12, §6, §7, §8, §9, §10, §11

Assay [1] concerns MCF-7 breast cancer cell line. In words: SRB anti-proliferative assay, MCF-7. It counts as cell-based, human. Conditions: for IC50: Homo sapiens, MCF7, SRB assay, 48 h, mean ± S.D. from 3 separate experiments, read-out: IC50 MCF-7; for fold enhancement of anti-proliferative activity compared to 6a: MCF-7, ratio of IC50 values. Here is the method:
Cytotoxicity was assessed following the SRB colorimetric assay protocol, as reported earlier.
1. Anti-proliferative action toward human breast cell lines […]
have been obtained from American Type Culture Collection (ATCC). The cells were maintained in Dulbecco's modified Eagle's medium (DMEM) supplemented with 10% heat inactivated fetal calf serum (GIBCO), penicillin (100 U/ml) and streptomycin (100 µg/ml) at 37 °C in humidified atmosphere containing 5% CO2. Cells at a concentration of […]
The anti-proliferative activity of the tested hybrids 6a-i, 9a-f and 11a, b was measured in vitro using the Sulfo-Rhodamine-B stain (SRB) assay. Briefly, Cells were inoculated in 96-well microtiter plate (5X104 cells/ well) for 24 h before treatment with the tested compounds to allow attachment of cell to the wall of the plate. Tested compounds were dissolved in DMSO at 1 mg/ml immediately before use and diluted to the appropriate volume just before addition to the cell culture. Different concentrations of tested compounds, doxorubicin and sorafenib were added to the cells (three wells were prepared for each individual dose). Cells were incubated with the compounds for 48 h at 37°C and in atmosphere of 5% CO2. After 48 h cells were fixed, washed, and stained for 30 min with 0.4% (w/v) SRB dissolved in 1% acetic acid. Unbound dye was removed by four washes with 1% acetic acid, and attached stain was recovered with Tris-EDTA buffer.
Color intensity was measured in an ELISA reader. […]
In general terms: Sulforhodamine B stains cellular protein and so reports cell mass.

Another assay has as its target T2, CDK2 (Homo sapiens, UniProt P24941).
T2 construct: purchased Reaction Biology Corp. (Kinase HotSpot service)
Kind of assay: CDK2 kinase inhibition (Reaction Biology HotSpot). Type of assay: biochemical. To be noted: single dose of 20 µM; read-out: % Enzyme Inhibitory Activity CDK2.
Text: as §1, §2, §3, §4

The test system of another assay is Bax/Bcl-2. Kind of assay: Bax/Bcl-2 ratio in MCF-7 cells. It counts as cell-based, human. Conditions: for fold increase of Bax/Bcl-2 ratio: MCF-7, vs control; for Bax/Bcl-2: MCF-7 cells treated at IC50, control 8.2. As to the method:
as §12, §6, §7, §8, §9, §10, §11

A further assay relates to MCF-7 cells. Kind of assay: Annexin V-FITC apoptosis assay. It counts as cell-based, human. To be noted: for fold increase of entire apoptosis percentage: MCF-7, in comparison to the control (DMSO); for percent of Anx V-FITC positive cells (entire apoptosis): MCF-7 cells treated at IC50. Here is the method:
Anx V-based flow cytometry assay represents a helpful tactic for determining whether death of cells is attributed to programmed apoptosis or to uncontrolled necrosis.
This clearly verifies that cell death resulting from the anti-proliferative action of the target hybrids was attributable to physiological apoptosis and not to nonspecific necrosis.
Assessment of the levels for the proapoptotic markers (Bax, caspase-3, and p53) as well as the antiapoptotic marker (Bcl-2) was carried out through the use of ELISA colorimetric kits in accordance with the manufacturer’s instructions, as mentioned earlier. In addition, the pro-apoptotic potential of indoles 6e and 6f towards MCF-7 cells was evaluated through an FITC Annexin V apoptosis detection kit by flow cytometry, in accordance with the manufacturer’s protocol and referring to the reported procedures. […]
4. Annexin V-FITC Apoptosis Assay
Phosphatidylserine externalization was assayed using Annexin V-FITC/PI apoptosis detection kit (BD Biosciences, USA) according to the manufacturer’s instructions. Breast cancer MCF-7 cells were cultured to a monolayer then treated with hybrids 6e and 6f at their IC50 concentration. Briefly, cells were then harvested via trypsinization, and rinsed twice in PBS followed by binding buffer. Moreover, cells were re-suspended in 100 μL of binding buffer with the addition of 1 μL of FITC-Annexin V followed by an incubation period of 30 min at 4 °C. Cells were then rinsed in binding buffer and resuspended in 150 μL of binding buffer with the addition of 1 μL of DAPI (1 μg/μL in PBS). Cells were then analyzed using the flow cytometer BD FACS Canto II and the results were interpreted with FlowJo7.6.4 software (Tree Star, Ashland, OR, USA).

In another assay the test system is caspase-3. Kind of assay: ELISA of active caspase-3 level in MCF-7 cells. Type of assay: cell-based, human. Conditions: for fold increase of caspase-3 level: MCF-7, in comparison to the control; for Caspase-3: active caspase-3, MCF-7 cells treated at IC50, 48 h, control 35.92 ± 1.8. Here is the method:
as §5, §6, §7, §8, §9, §10, §11

This is an account of results in PMC7248897, “Synthesis, Biological Evaluation and In Silico Studies of Certain Oxindole–Indole Conjugates as Anticancer CDK Inhibitors” (Molecules, 2020).

As a reminder, the IC50 is the concentration at which inhibition is half-maximal.

T1 sequence (P11802 whole entry): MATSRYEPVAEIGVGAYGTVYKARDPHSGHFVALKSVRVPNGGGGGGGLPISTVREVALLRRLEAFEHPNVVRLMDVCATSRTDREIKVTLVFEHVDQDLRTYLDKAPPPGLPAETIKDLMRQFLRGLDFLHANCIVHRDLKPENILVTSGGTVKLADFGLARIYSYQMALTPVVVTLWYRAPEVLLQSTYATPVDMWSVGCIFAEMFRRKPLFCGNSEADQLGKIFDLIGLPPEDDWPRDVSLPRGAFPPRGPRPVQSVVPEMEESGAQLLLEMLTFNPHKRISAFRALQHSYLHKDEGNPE
T1 sequence (P24385 whole entry partner): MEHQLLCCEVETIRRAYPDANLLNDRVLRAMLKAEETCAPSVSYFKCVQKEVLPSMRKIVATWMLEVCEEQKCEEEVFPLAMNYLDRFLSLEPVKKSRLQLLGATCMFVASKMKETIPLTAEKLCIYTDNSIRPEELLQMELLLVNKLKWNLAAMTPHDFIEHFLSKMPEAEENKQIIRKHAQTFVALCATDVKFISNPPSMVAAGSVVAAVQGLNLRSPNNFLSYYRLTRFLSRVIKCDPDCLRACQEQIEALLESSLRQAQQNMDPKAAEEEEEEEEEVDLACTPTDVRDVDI

For `Cc1ccc2c(c1)/C(=N/NC(=O)c1cc3ccccc3[nH]1)C(=O)N2` [6e], at CDK4, half-maximal inhibition (IC50) was put at 1260 nM and the inhibition at 20 µM is 93%. Moreover, in the assay with p53, the “fold increase of p53 level” value came to 17 fold and the p53 is on record as 704.39 ± 32.8 pg/mg. Moreover, in the assay with Bcl-2, the “fold decrease of Bcl-2 level” value came to 2.12 fold and the Bcl-2 was 2.19 ± 0.10 ng/mg of Total Protein. Further, in the assay with Bax, the “fold increase of Bax level” value stood at 8.5 fold and the Bax is recorded as 325.3 ± 12.1 pg/mg of Total Protein. Besides, in assay [1], the IC50 came out at 390 ± 50 nM and the “fold enhancement of anti-proliferative activity compared to 6a” value is recorded as 8 fold. At CDK2, the inhibition at 20 µM was at least 50%. For the same molecule, in the assay with Bax/Bcl-2, the “fold increase of Bax/Bcl-2 ratio” value is recorded as 18 fold and the Bax/Bcl-2 stood at 148.5. In the assay on MCF-7 cells, the “fold increase of entire apoptosis percentage” value is on record as 33.75 fold and the “percent of Anx V-FITC positive cells (entire apoptosis)” value was 29.7%. In the assay on caspase-3, the “fold increase of caspase-3 level” value was determined as 11.45 fold and the Caspase-3 was determined as 411.70 ± 12.3 pg/mg.
At CDK4, `COc1ccc2c(c1)/C(=N/NC(=O)c1cc3ccccc3[nH]1)C(=O)N2` [6f] had an inhibition at 20 µM of 14%. In addition, in the assay with p53, the “fold increase of p53 level” value is 13.3 fold and the p53 amounted to 547.60 ± 29.5 pg/mg. Moreover, in the assay with Bcl-2, the “fold decrease of Bcl-2 level” value is on record as 1.7 fold and the Bcl-2 is recorded as 2.73 ± 0.13 ng/mg of Total Protein. Also, in the assay with Bax, the “fold increase of Bax level” value stood at 7 fold and the Bax was 268.7 ± 9.5 pg/mg of Total Protein. In [1], the IC50 stood at 1850 ± 80 nM and the “fold enhancement of anti-proliferative activity compared to 6a” value was determined as 1.7 fold. On CDK2, the inhibition at 20 µM is at least 50%. In addition, in the assay with Bax/Bcl-2, the “fold increase of Bax/Bcl-2 ratio” value came to 12 fold and the Bax/Bcl-2 was determined as 98.6. For the same molecule, in the assay with MCF-7 cells, the “fold increase of entire apoptosis percentage” value is given as 28.60 fold and the “percent of Anx V-FITC positive cells (entire apoptosis)” value was found to be 25.17%. Moreover, in the assay with caspase-3, the “fold increase of caspase-3 level” value amounted to 10.1 fold and the Caspase-3 is recorded as 364.15 ± 14.8 pg/mg.
